# US20240376163A1, “PEPTIDE FOR INHIBITING CALCINEURIN AND USE THEREOF” (Seoul National University R&DB Foundation, priority 2023, published 2024)
# Test system: Jurkat T cells
# Assay: mRNA sequencing of activated Jurkat T cells
# Type: cell-based, human
# Details: P+I
sequence,measurement,value
PEITVTPPTP [CABIN1-L-1-2],ARHGEF6 FPKM,27.254 FPKM
same,ASAP1 FPKM,9.052 FPKM
same,ATG14 FPKM,11.252 FPKM
same,ATP2B4 FPKM,10.46 FPKM
same,ATXN1 FPKM,2.083 FPKM
same,BACH2 FPKM,36.118 FPKM
same,BAI2 FPKM,1.079 FPKM
same,BAIAP2-AS1 FPKM,2.144 FPKM
same,BATF3 FPKM,45.085 FPKM
same,BHLHE40 FPKM,9.368 FPKM
same,BTG1 FPKM,23.454 FPKM
same,C1QL1 FPKM,0.756 FPKM
same,C1orf233 FPKM,0.674 FPKM
same,C3 FPKM,1.329 FPKM
same,C9orf9 FPKM,6.009 FPKM
same,C10orf54 FPKM,0.487 FPKM
same,C16orf46 FPKM,3.705 FPKM
same,CASC15 FPKM,2.572 FPKM
same,CBX4 FPKM,11.578 FPKM
same,CBX6 FPKM,65.604 FPKM
same,CCDC64 FPKM,11.039 FPKM
same,CCDC71L FPKM,16.319 FPKM
same,CCL1 FPKM,0.415 FPKM
same,CCL3L1 FPKM,0.079 FPKM
same,CCL4 FPKM,4.062 FPKM
same,CCL4L1 FPKM,0.328 FPKM
same,CCL4L2 FPKM,0.328 FPKM
same,CCND2 FPKM,0.99 FPKM
same,CD1A FPKM,4.51 FPKM
same,CD1C FPKM,2.59 FPKM
same,CD1D FPKM,3.093 FPKM
same,CD27-AS1 FPKM,4.613 FPKM
same,CD27 FPKM,3.4 FPKM
same,CD55 FPKM,12.082 FPKM
same,CD69 FPKM,121.846 FPKM
same,CD83 FPKM,41.173 FPKM
same,CDCA7 FPKM,21.851 FPKM
same,CDT1 FPKM,11.831 FPKM
same,CFD FPKM,1.22 FPKM
same,CHI3L2 FPKM,51.627 FPKM
same,CHRNA9 FPKM,2.572 FPKM
same,CLEC2B FPKM,54.119 FPKM
same,CNR2 FPKM,0.552 FPKM
same,CORO2A FPKM,1.623 FPKM
same,CRIM1 FPKM,0.333 FPKM
same,CRTAM FPKM,9.51 FPKM
same,CSRNP1 FPKM,23.093 FPKM
same,CST7 FPKM,3.175 FPKM
same,CTDSPL FPKM,1.836 FPKM
same,CTTN FPKM,15.629 FPKM
same,CXCL3 FPKM,7.007 FPKM
same,CXCL9 FPKM,7.221 FPKM
same,CXCL10 FPKM,6.288 FPKM
same,CXCR3 FPKM,1.803 FPKM
same,CYB5RL FPKM,1.449 FPKM
same,DFNA5 FPKM,9.395 FPKM
same,DHFR FPKM,6.668 FPKM
same,DNAJB11 FPKM,109.967 FPKM
same,DNAJC1 FPKM,13.844 FPKM
same,DNPEP FPKM,43.482 FPKM
same,DOK2 FPKM,27.542 FPKM
same,DPY19L2P2 FPKM,2.643 FPKM
same,DPYSL2 FPKM,9.177 FPKM
same,DTX3L FPKM,48.261 FPKM
same,DUSP2 FPKM,97.06 FPKM
same,DUSP5 FPKM,157.077 FPKM
same,E2F1 FPKM,8.062 FPKM
same,E2F2 FPKM,3.419 FPKM
same,EIF2AK3 FPKM,9.816 FPKM
same,ENC1 FPKM,9.268 FPKM
same,ENHO FPKM,1.223 FPKM
same,ENPP1 FPKM,51.27 FPKM
same,EPAS1 FPKM,4.197 FPKM
same,EPHA3 FPKM,2.536 FPKM
same,ERO1LB FPKM,4.345 FPKM
same,ETV5 FPKM,13.264 FPKM
same,EVI2A FPKM,10.047 FPKM
same,FAM46C FPKM,5.693 FPKM
same,FAM111B FPKM,4.22 FPKM
same,FASLG FPKM,1.715 FPKM
same,FBXO34 FPKM,18.386 FPKM
same,FMNL2 FPKM,3.019 FPKM
same,FOS FPKM,4.53 FPKM
same,FOXO1 FPKM,3.736 FPKM
same,FST FPKM,6.872 FPKM
same,FURIN FPKM,29.008 FPKM
same,FYB FPKM,10.258 FPKM
same,GAMT FPKM,11.98 FPKM
same,GBP1 FPKM,87.487 FPKM
same,GBP2 FPKM,38.881 FPKM
same,GBP3 FPKM,68.757 FPKM
same,GBP4 FPKM,9.209 FPKM
same,GBP5 FPKM,262.945 FPKM
same,GDPD5 FPKM,39.139 FPKM
same,GEM FPKM,2.963 FPKM
same,GINS2 FPKM,16.516 FPKM
same,GLIPR2 FPKM,11.773 FPKM
same,GNAQ FPKM,17.078 FPKM
same,GNG2 FPKM,17.754 FPKM
same,GPR3 FPKM,9.964 FPKM
